Measured values taken from patent US9321767B2, “Azabenzimidazoles as respiratory syncytial virus antiviral agents” (JANSSEN SCIENCES IRELAND UC, priority 2010, dated 2016).

Experiments:
HeLa cells = assay: Cytotoxicity in HeLa cells, ATP content (ATPlite kit); assay type: cell-based; conditions: HeLa cells, three days incubation, ATP content
Experimental: (§1) Black 96-well clear-bottom microtiter plates (Corning, Amsterdam, The Netherlands) were filled in duplicate using a customized robot system with serial 4-fold dilutions of compound in a final volume of 50 μl culture medium [RPMI medium without phenol red, 10% FBS, 0.04% gentamycin (50 mg/mL) and 0.5% DMSO]. Then, 100 μl of a HeLa cell suspension (5×10^4 cells/mL) in culture medium was added to each well followed by the addition of 50 μl rgRSV224 (MOI=0.02) virus in culture medium using a multidrop dispenser (Thermo Scientific, Erembodegem, Belgium). rgRSV224 virus is an engineered virus that includes an additional GFP gene (Hallak et al, 2000) and was in-licensed from the NIH (Bethesda, Md., USA). Medium, virus- and mock-infected controls were included in each test. Cells were incubated at 37° C. in a 5% CO2 atmosphere. Three days post-virus exposure, viral replication was quantified by measuring GFP expression in the cells by a MSM laser microscope (Tibotec, Beerse, Belgium). The EC50 was defined as the 50% inhibitory concentration for GFP expression. In parallel, compounds were incubated for three days in a set of white 96-well microtitier plates (Corning) and the cytotoxicity of compounds in HeLa cells was determined by measuring the ATP content of the cells using the ATPlite kit (PerkinElmer, Zaventem, Belgium) according to the manufacturer's instructions. The CC50 was defined as the 50% concentration for cytotoxicity.

rgRSV224 virus = assay: microbe, parasite or virus in culture; assay type: cell-based, respiratory syncytial virus (RSV); conditions: human respiratory syncytial virus, HeLa, 72 h, read-out: RSV-wt_EC50
Experimental: as §1

SMILES | TOX-HELA_EC50 (HeLa cells) | EC50 (rgRSV224 virus)
CC(C)CCn1c(Cn2c(=O)n(C3COC3)c3ccncc32)nc2cnccc21 [Compound 36] | >9.836 µM | 94.9 nM
CN(C)c1nccc2c1nc(Cn1c(=O)n(C3CC3)c3ccncc31)n2CCCCO [Compound 37] | >9.836 µM | 274 nM
O=c1n(Cc2nc3c(Cl)nccc3n2CCCCOCc2ccccc2)c2cnccc2n1C1CC1 [Compound 38, 3-((1-(4-benzyloxy)butyl)-4-chloro-1H-imidazo[4,5-c]pyridin-2-yl)methyl-1-cyclopropyl-1H-imidazo[4,5-c]pyridin-2(3H)-one] | >98.3603 µM | 1480 nM
O=c1n(Cc2nc3nc(Cl)ccc3n2CCCC(F)(F)F)c2cnccc2n1C1CC1 [Compound 39, 3-((5-chloro-1-(4,4,4-trifluorobutyl)-1H-imidazo[4,5-b]pyridin-2-yl)methyl)-1-cyclopropyl-1H-imidazo[4,5-c]pyridin-2(3H)-one] | >98.3603 µM | 0.96 nM
O=c1n(Cc2nc3nc(Cl)ccc3n2CCCCF)c2cnccc2n1C1CC1 [Compound 40, 3-((5-chloro-1-(4-fluorobutyl)-1H-imidazo[4,5-b]pyridin-2-yl)methyl)-1-cyclopropyl-1H-imidazo[4,5-c]pyridin-2(3H)-one] | >98.3603 µM | 2 nM
O=c1n(Cc2nc3ncccc3n2CCCC(F)(F)F)c2cnccc2n1C1CC1 [Compound 41, 1-cyclopropyl-3-((1-(4,4,4-trifluorobutyl)-1H-imidazo[4,5-b]pyridin-2-yl)methyl)-1H-imidazo[4,5-c]pyridin-2(3H)-one] | >98.3603 µM | 7.1 nM
O=c1n(Cc2nc3ncccc3n2CCCCF)c2cnccc2n1C1CC1 [Compound 42, 1-cyclopropyl-3-((1-(4-fluorobutyl)-1H-imidazo[4,5-b]pyridin-2-yl)methyl)-1H-imidazo[4,5-c]pyridin-2(3H)-one] | >98.3603 µM | 5.2 nM
CC(C)CCn1c(Cn2c(=O)n(C3CC3)c3ccncc32)nc2nc(C(F)(F)F)ccc21 [Compound 44, 1-cyclopropyl-3-((1-isopentyl-5-(trifluoromethyl)-1H-imidazo[4,5-b]pyridin-2-yl)methyl)-1H-imidazo[4,5-c]pyridin-2(3H)-one] | >98.3603 µM | 19 nM
